# From ChEMBL document CHEMBL1201862, “PubChem BioAssay data set” (2004)
#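 Values below derive from 48-hour exposures of cells grown in 96-well plates, with endpoints linearly interpolated between the two concentrations bracketing the appropriate inhibition level. The concentration for 50% growth inhibition is given as GI50.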 Calls of active or inactive are those of the source. Cut-off read from the data, not from the text of the source: active = GI50 up to about 1.1 µM and inactive = higher.
# Assays:
# Experiment in all cases: NCI anticancer screen, dose series, 48 h
# SK-OV-3 = tested on: SK-OV-3
# UACC-62 = tested on: UACC-62
# HT-29 = tested on: HT-29
# CAKI-1 = tested on: CAKI-1
# SK-MEL-2 = tested on: SK-MEL-2
# MDA-MB-435 = tested on: MDA-MB-435
# TK-10 = tested on: TK-10
# SK-MEL-5 = tested on: SK-MEL-5
# T47D = tested on: T47D
# 786-0 = tested on: 786-0
# OVCAR-8 = tested on: OVCAR-8
# PC-3 = tested on: PC-3
# HCT-15 = tested on: HCT-15
# A549 = tested on: A549
# NCI-H23 = tested on: NCI-H23
# MOLT-4 = tested on: MOLT-4
# SNB-19 = tested on: SNB-19
# NCI-H522 = tested on: NCI-H522
# UACC-257 = tested on: UACC-257
# OVCAR-3 = tested on: OVCAR-3
# OVCAR-4 = tested on: OVCAR-4
# HOP-62 = tested on: HOP-62
# EKVX = tested on: EKVX
# SK-MEL-28 = tested on: SK-MEL-28
# M14 = tested on: M14
# SF-268 = tested on: SF-268
# UO-31 = tested on: UO-31
# NCI-H460 = tested on: NCI-H460
# COLO 205 = tested on: COLO 205
# HCT-116 = tested on: HCT-116
# KM12 = tested on: KM12
# HL-60 = tested on: HL-60
# RPMI-8226 = tested on: RPMI-8226
# U-251 = tested on: U-251
# SW-620 = tested on: SW-620
# MCF7 = tested on: MCF7
# A498 = tested on: A498
# BT-549 = tested on: BT-549
# Hs-578T = tested on: Hs-578T
# NCI/ADR-RES = tested on: NCI/ADR-RES
# HOP-92 = tested on: HOP-92
# SN12C = tested on: SN12C
# SR = tested on: SR
# MDA-MB-231 = tested on: MDA-MB-231
# SF-295 = tested on: SF-295
# ACHN = tested on: ACHN
# NCI-H226 = tested on: NCI-H226
# MDA-N = tested on: MDA-N
# SF-539 = tested on: SF-539
# K562 = tested on: K562
# Malme-3M = tested on: Malme-3M
# OVCAR-5 = tested on: OVCAR-5
# IGROV-1 = tested on: IGROV-1
# LOX IMVI = tested on: LOX IMVI
# HCC 2998 = tested on: HCC 2998
# DU-145 = tested on: DU-145
# CCRF-CEM = tested on: CCRF-CEM
# RXF 393 = tested on: RXF 393
# SNB-75 = tested on: SNB-75
structure (smiles),measurement,setting,value
Cc1[nH]c2ccccc2c1-c1cc(-c2cc(-c3c(C)[nH]c4ccccc34)nc(N)n2)nc(N)n1,GI50,SK-OV-3,> 100 µM (inactive)
same,GI50,UACC-62,> 100 µM (inactive)
same,GI50,HT-29,> 100 µM (inactive)
same,GI50,CAKI-1,> 100 µM (inactive)
same,GI50,SK-MEL-2,> 100 µM (inactive)
same,GI50,MDA-MB-435,> 100 µM (inactive)
same,GI50,TK-10,> 100 µM (inactive)
same,GI50,SK-MEL-5,> 100 µM (inactive)
same,GI50,T47D,> 100 µM (inactive)
same,GI50,786-0,> 100 µM (inactive)
same,GI50,OVCAR-8,> 100 µM (inactive)
same,GI50,PC-3,> 100 µM (inactive)
same,GI50,HCT-15,> 100 µM
same,GI50,A549,> 100 µM (inactive)
same,GI50,NCI-H23,> 100 µM (inactive)
same,GI50,MOLT-4,> 100 µM (inactive)
same,GI50,SNB-19,> 100 µM (inactive)
same,GI50,NCI-H522,51.8 µM (inactive)
same,GI50,UACC-257,> 100 µM (inactive)
same,GI50,OVCAR-3,> 100 µM (inactive)
same,GI50,OVCAR-4,> 100 µM (inactive)
same,GI50,HOP-62,> 100 µM (inactive)
same,GI50,EKVX,> 100 µM (inactive)
same,GI50,SK-MEL-28,> 100 µM (inactive)
same,GI50,M14,> 100 µM (inactive)
same,GI50,SF-268,> 100 µM (inactive)
same,GI50,UO-31,14.9 µM (inactive)
same,GI50,NCI-H460,> 100 µM (inactive)
same,GI50,COLO 205,> 100 µM (inactive)
same,GI50,HCT-116,> 100 µM (inactive)
same,GI50,KM12,> 100 µM (inactive)
same,GI50,HL-60,> 100 µM (inactive)
same,GI50,RPMI-8226,> 100 µM (inactive)
same,GI50,U-251,> 100 µM (inactive)
same,GI50,SW-620,> 100 µM (inactive)
same,GI50,MCF7,> 100 µM (inactive)
same,GI50,A498,> 100 µM (inactive)
same,GI50,BT-549,> 100 µM (inactive)
same,GI50,Hs-578T,> 100 µM (inactive)
same,GI50,NCI/ADR-RES,> 100 µM (inactive)
same,GI50,HOP-92,> 100 µM (inactive)
same,GI50,SN12C,> 100 µM (inactive)
same,GI50,SR,86.3 µM (inactive)
same,GI50,MDA-MB-231,> 100 µM (inactive)
same,GI50,SF-295,> 100 µM (inactive)
same,GI50,ACHN,> 100 µM (inactive)
same,GI50,NCI-H226,37.2 µM (inactive)
same,GI50,MDA-N,> 100 µM (inactive)
same,GI50,SF-539,> 100 µM (inactive)
same,GI50,K562,> 100 µM (inactive)
same,GI50,Malme-3M,> 100 µM (inactive)
same,GI50,OVCAR-5,> 100 µM (inactive)
same,GI50,IGROV-1,> 100 µM (inactive)
same,GI50,LOX IMVI,> 100 µM (inactive)
Cc1nn2c(C(=O)N/N=C/c3ccccc3O)c(C)nc2s1,GI50,UACC-62,> 100 µM (inactive)
same,GI50,HT-29,> 100 µM (inactive)
same,GI50,CAKI-1,> 100 µM (inactive)
same,GI50,HCC 2998,55.1 µM (inactive)
same,GI50,MDA-MB-435,> 100 µM (inactive)
same,GI50,TK-10,> 100 µM (inactive)
same,GI50,SK-MEL-5,60.3 µM (inactive)
same,GI50,T47D,61.5 µM (inactive)
same,GI50,786-0,47.8 µM (inactive)
same,GI50,OVCAR-8,> 100 µM (inactive)
same,GI50,HCT-15,41.9 µM
same,GI50,A549,> 100 µM (inactive)
same,GI50,NCI-H23,> 100 µM (inactive)
same,GI50,MOLT-4,51.9 µM (inactive)
same,GI50,SNB-19,> 100 µM (inactive)
same,GI50,NCI-H522,> 100 µM (inactive)
same,GI50,UACC-257,> 100 µM (inactive)
same,GI50,OVCAR-3,3.09 µM (inactive)
same,GI50,OVCAR-4,> 100 µM (inactive)
same,GI50,HOP-62,> 100 µM (inactive)
same,GI50,EKVX,> 100 µM (inactive)
same,GI50,SK-MEL-28,> 100 µM (inactive)
same,GI50,M14,53 µM (inactive)
same,GI50,SF-268,> 100 µM (inactive)
same,GI50,UO-31,> 100 µM (inactive)
same,GI50,NCI-H460,49.7 µM (inactive)
same,GI50,COLO 205,59.2 µM (inactive)
same,GI50,HCT-116,51.6 µM (inactive)
same,GI50,KM12,> 100 µM (inactive)
same,GI50,HL-60,31.8 µM (inactive)
same,GI50,DU-145,> 100 µM (inactive)
same,GI50,U-251,38 µM (inactive)
same,GI50,SW-620,> 100 µM (inactive)
same,GI50,CCRF-CEM,41.2 µM (inactive)
same,GI50,MCF7,30.8 µM (inactive)
same,GI50,A498,61.5 µM (inactive)
same,GI50,BT-549,> 100 µM (inactive)
same,GI50,Hs-578T,> 100 µM (inactive)
same,GI50,NCI/ADR-RES,61.4 µM (inactive)
same,GI50,RXF 393,> 100 µM (inactive)
same,GI50,HOP-92,> 100 µM (inactive)
same,GI50,SN12C,73.1 µM (inactive)
same,GI50,MDA-MB-231,> 100 µM (inactive)
same,GI50,SF-295,85.9 µM (inactive)
same,GI50,SNB-75,> 100 µM (inactive)
same,GI50,ACHN,56.1 µM (inactive)
same,GI50,NCI-H226,89.3 µM (inactive)
same,GI50,MDA-N,> 100 µM (inactive)
same,GI50,SF-539,> 100 µM (inactive)
same,GI50,K562,> 100 µM (inactive)
same,GI50,Malme-3M,> 100 µM (inactive)
same,GI50,OVCAR-5,> 100 µM (inactive)
same,GI50,IGROV-1,> 100 µM (inactive)
same,GI50,LOX IMVI,> 100 µM (inactive)
COC(=O)C1C(C(=O)OC)C2(OC(c3ccc(Cl)cc3)=CC2=O)C12OC(c1ccc(Cl)cc1)=CC2=O (stereo not drawn),GI50,SK-OV-3,71.1 µM (inactive)
same,GI50,UACC-62,14.6 µM (inactive)
same,GI50,HT-29,16.7 µM (inactive)
same,GI50,CAKI-1,22 µM (inactive)
same,GI50,SK-MEL-2,24 µM (inactive)
same,GI50,HCC 2998,18.3 µM (inactive)
same,GI50,MDA-MB-435,22.5 µM (inactive)
same,GI50,TK-10,22.6 µM (inactive)
same,GI50,SK-MEL-5,19.3 µM (inactive)
same,GI50,T47D,14.8 µM (inactive)
same,GI50,786-0,16.6 µM (inactive)
same,GI50,PC-3,21.8 µM (inactive)
same,GI50,HCT-15,16.4 µM
same,GI50,A549,34.1 µM (inactive)
same,GI50,NCI-H23,20.8 µM (inactive)
same,GI50,MOLT-4,4.45 µM (inactive)
same,GI50,SNB-19,43.2 µM (inactive)
same,GI50,NCI-H522,18.4 µM (inactive)
same,GI50,UACC-257,22.9 µM (inactive)
same,GI50,OVCAR-3,19.2 µM (inactive)
same,GI50,OVCAR-4,19.9 µM (inactive)
same,GI50,HOP-62,> 10 µM (inactive)
same,GI50,EKVX,22.3 µM (inactive)
same,GI50,SK-MEL-28,36.8 µM (inactive)
same,GI50,M14,19.1 µM (inactive)
same,GI50,SF-268,24.5 µM (inactive)
same,GI50,UO-31,16.6 µM (inactive)
same,GI50,NCI-H460,19.8 µM (inactive)
same,GI50,COLO 205,16.7 µM (inactive)
same,GI50,HCT-116,14.9 µM (inactive)
same,GI50,HL-60,2.81 µM (inactive)
same,GI50,RPMI-8226,7.21 µM (inactive)
same,GI50,DU-145,29.9 µM (inactive)
same,GI50,U-251,32.1 µM (inactive)
same,GI50,SW-620,32.7 µM (inactive)
same,GI50,CCRF-CEM,3.01 µM (inactive)
same,GI50,MCF7,18 µM (inactive)
same,GI50,A498,29.9 µM (inactive)
same,GI50,BT-549,16.4 µM (inactive)
same,GI50,Hs-578T,30.5 µM (inactive)
same,GI50,RXF 393,17.5 µM (inactive)
same,GI50,HOP-92,18.6 µM (inactive)
same,GI50,SN12C,20.5 µM (inactive)
same,GI50,SR,1.96 µM (inactive)
same,GI50,MDA-MB-231,26.4 µM (inactive)
same,GI50,SF-295,22.6 µM (inactive)
same,GI50,ACHN,19.9 µM (inactive)
same,GI50,NCI-H226,28.4 µM (inactive)
same,GI50,MDA-N,18.3 µM (inactive)
same,GI50,SF-539,18.3 µM (inactive)
same,GI50,K562,19.3 µM (inactive)
same,GI50,Malme-3M,17.3 µM (inactive)
same,GI50,OVCAR-5,24.3 µM (inactive)
same,GI50,IGROV-1,17 µM (inactive)
same,GI50,LOX IMVI,23.1 µM (inactive)
